In assay [1] the target is T1, human GLP-1 receptor (Homo sapiens, UniProt P43220).
T1 construct: expressed in transfected cells; host or cells: CHO-K1 cells
The experiment in a line: cAMP production (HTRF) in CHO-K1 cells expressing GLP-1 receptor. Format: cell-based. In general terms: Changes in cAMP serve as a functional read-out for many G protein-coupled receptors.

For assay [2], the target named is T2, human GLP-2 receptor (Homo sapiens, UniProt O95838).
T2 construct: expressed in transfected cells; host or cells: CHO-K1 cells
T2 sequence (O95838 1-553): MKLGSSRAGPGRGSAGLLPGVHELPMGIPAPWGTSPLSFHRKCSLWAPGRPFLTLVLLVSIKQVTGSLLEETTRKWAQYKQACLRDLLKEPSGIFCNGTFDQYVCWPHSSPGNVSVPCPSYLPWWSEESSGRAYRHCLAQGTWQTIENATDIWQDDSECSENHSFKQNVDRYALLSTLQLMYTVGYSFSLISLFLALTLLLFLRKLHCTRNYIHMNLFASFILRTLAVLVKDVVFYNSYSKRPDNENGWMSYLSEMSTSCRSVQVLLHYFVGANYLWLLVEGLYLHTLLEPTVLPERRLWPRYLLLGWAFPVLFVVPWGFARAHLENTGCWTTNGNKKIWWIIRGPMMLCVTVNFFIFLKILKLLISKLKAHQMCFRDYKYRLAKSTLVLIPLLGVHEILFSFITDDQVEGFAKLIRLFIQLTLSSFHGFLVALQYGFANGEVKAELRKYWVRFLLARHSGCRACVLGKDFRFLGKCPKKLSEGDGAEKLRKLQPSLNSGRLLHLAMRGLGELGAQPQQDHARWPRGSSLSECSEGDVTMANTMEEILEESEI
Description: cAMP production (HTRF) in CHO-K1 cells expressing GLP-2 receptor. Conditions: for Emax: CHO-K1, control peptide GLP-2 (1-34), read-out: Max efficacy in % of control peptide; for Emax / pEC50: cAMP; for pEC50: CHO-K1 human GLP-2 receptor. Format: cell-based. The method, then: CHO-K1 cells expressing the human GLP-2 receptor grown in media without antibiotic were detached by gentle flushing with PBS-EDTA (5 mM EDTA), recovered by centrifugation and resuspended in assay buffer (KRH: 5 mM KCl, 1.25 mM MgSO4, 124 mM NaCl, 25 mM HEPES, 13.3 mM Glucose, 1.25 mM KH2PO4, 1.45 mM CaCl2), 0.5 g/l BSA).
12 μl of cells were mixed with 12 μl of the test compound (solubilized in PBS/0.5% BSA and finally diluted from a stock solution of 1 mM) at increasing concentrations in 96 wells plates and then incubated 30 min at room temperature. cAMP production was determined after addition of a lysis buffer and 1 hour incubation, by use of competitive immunoassay using cryptate-labeled anti-cAMP and d2-labeled cAMP (HTRF kit from CisBio) with Delta F percentage values calculated according to the manufacturer specification. Dose response curves were performed in parallel with test compounds, and reference compounds.
The HTRF technology is a titration assay based on a competition between labeled cAMP (exogenous) and cAMP produced by the cell after activation of the […]. The dynamic range of the assay was 3-4 fold meaning that the linear range (which enables conversion from raw data to nM of cAMP) is within that range. […] All experiments were conducted in the presence of the non-selective phosphodiesterase inhibitor IBMX (1 mM in final concentration).
The test compounds were tested in a concentration range from […] to 10^−7M
Data is presented as mean values.

The target in assay [3] is T3, FPR2 receptor (Homo sapiens, UniProt P25090).
T3 sequence (P25090 1-351): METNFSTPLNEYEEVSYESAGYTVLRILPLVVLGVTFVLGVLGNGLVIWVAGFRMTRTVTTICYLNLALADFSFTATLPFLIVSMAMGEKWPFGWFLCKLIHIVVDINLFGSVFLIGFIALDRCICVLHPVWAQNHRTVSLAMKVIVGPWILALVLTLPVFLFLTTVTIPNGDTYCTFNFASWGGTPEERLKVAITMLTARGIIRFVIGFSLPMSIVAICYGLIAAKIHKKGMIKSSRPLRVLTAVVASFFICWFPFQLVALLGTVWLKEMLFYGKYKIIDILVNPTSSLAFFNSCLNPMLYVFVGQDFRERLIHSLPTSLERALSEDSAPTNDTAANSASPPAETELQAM
Conditions: cited from earlier work.

pEC50: −log10 of the molar value.

T1 sequence (P43220 24-463): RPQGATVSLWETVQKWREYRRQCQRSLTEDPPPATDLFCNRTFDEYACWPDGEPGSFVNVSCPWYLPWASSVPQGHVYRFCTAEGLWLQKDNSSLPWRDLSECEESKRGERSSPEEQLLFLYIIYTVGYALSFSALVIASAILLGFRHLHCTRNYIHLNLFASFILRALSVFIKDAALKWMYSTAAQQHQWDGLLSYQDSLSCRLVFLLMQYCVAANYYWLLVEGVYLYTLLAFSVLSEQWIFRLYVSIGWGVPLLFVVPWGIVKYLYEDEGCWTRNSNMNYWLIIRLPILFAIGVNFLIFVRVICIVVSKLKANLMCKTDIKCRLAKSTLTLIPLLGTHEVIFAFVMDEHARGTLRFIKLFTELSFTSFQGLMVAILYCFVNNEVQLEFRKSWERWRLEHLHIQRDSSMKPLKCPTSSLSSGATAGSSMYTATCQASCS

Turning to `CC[C@H](C)[C@H](NC(=O)[C@H](Cc1ccccc1)NC(=O)[C@H](CCC(=O)O)NC(=O)[C@H](CCCCN)NC(=O)[C@H](C)NC(=O)[C@H](C)NC(=O)[C@H](CCC(N)=O)NC(=O)CNC(=O)[C@H](CCC(=O)O)NC(=O)[C@H](CC(C)C)NC(=O)[C@H](Cc1ccc(O)cc1)NC(=O)[C@H](CO)NC(=O)[C@H](CO)NC(=O)[C@@H](NC(=O)[C@H](CC(=O)O)NC(=O)[C@H](CO)NC(=O)[C@@H](NC(=O)[C@H](Cc1ccccc1)NC(=O)[C@@H](NC(=O)CNC(=O)[C@H](CCC(=O)O)NC(=O)CNC(=O)[C@H](Cc1c[nH]cn1)NC(C)=O)[C@@H](C)O)[C@@H](C)O)C(C)C)C(=O)N[C@@H](C)C(=O)N[C@@H](Cc1c[nH]c2ccccc12)C(=O)N[C@@H](CC(C)C)C(=O)N[C@H](C(=O)N[C@@H](CCCCN)C(=O)NCC(=O)N[C@@H](CCCNC(=N)N)C(=O)NCC(=O)N[C@@H](CCCCNC(=O)[C@H](CCCCN)NC(=O)[C@H](CCCCN)NC(C)=O)C(N)=O)C(C)C` [Analogue 2], the pEC50 – broadly, the negative decadic logarithm of the EC50, by convention in mol/L – in assay [1] was 10.40. For the same compound, in assay [1] (CHO-K1, read-out: Max efficacy in % of control peptide), the Emax was 102%.

Consider `CC[C@H](C)[C@H](NC(=O)[C@H](Cc1ccccc1)NC(=O)[C@H](CC(=O)O)NC(=O)[C@H](CCCNC(=N)N)NC(=O)[C@H](C)NC(=O)[C@H](C)NC(=O)[C@H](CC(C)C)NC(=O)[C@H](CC(N)=O)NC(=O)[C@H](CC(=O)O)NC(=O)[C@H](CC(C)C)NC(=O)[C@@H](NC(=O)[C@@H](NC(=O)[C@H](CC(N)=O)NC(=O)[C@H](CCSC)NC(=O)[C@H](CCC(=O)O)NC(=O)[C@H](CC(=O)O)NC(=O)[C@H](CO)NC(=O)[C@H](Cc1ccccc1)NC(=O)[C@H](CO)NC(=O)CNC(=O)[C@H](CC(=O)O)NC(=O)[C@H](C)NC(=O)[C@H](Cc1c[nH]cn1)NC(C)=O)[C@@H](C)O)[C@@H](C)CC)C(=O)N[C@@H](CC(N)=O)C(=O)N[C@@H](Cc1c[nH]c2ccccc12)C(=O)N[C@@H](CC(C)C)C(=O)N[C@H](C(=O)N[C@@H](CCC(N)=O)C(=O)N[C@H](C(=O)N[C@@H](CCCCN)C(=O)N[C@H](C(=O)N[C@H](C(=O)N[C@@H](CC(=O)O)C(=O)N[C@@H](CCCCNC(=O)[C@H](CCCCN)NC(=O)[C@H](CCCCN)NC(C)=O)C(N)=O)[C@@H](C)O)[C@@H](C)CC)[C@@H](C)O)[C@@H](C)CC` [Analogue 3], for which, in assay [2], the Emax was 101% and the pEC50 is 8.47.

Take `CC[C@H](C)[C@H](NC(=O)[C@H](Cc1ccccc1)NC(=O)[C@H](CC(=O)O)NC(=O)[C@H](CCCNC(=N)N)NC(=O)[C@H](C)NC(=O)[C@H](C)NC(=O)[C@H](CC(C)C)NC(=O)[C@H](CC(N)=O)NC(=O)[C@H](CC(=O)O)NC(=O)[C@H](CC(C)C)NC(=O)[C@@H](NC(=O)[C@@H](NC(=O)[C@H](CC(N)=O)NC(=O)[C@H](CCSC)NC(=O)[C@H](CCC(=O)O)NC(=O)[C@H](CC(=O)O)NC(=O)[C@H](CO)NC(=O)[C@H](Cc1ccccc1)NC(=O)[C@H](CO)NC(=O)CNC(=O)[C@H](CC(=O)O)NC(=O)CNC(=O)[C@H](Cc1c[nH]cn1)NC(C)=O)[C@@H](C)O)[C@@H](C)CC)C(=O)N[C@@H](CC(N)=O)C(=O)N[C@@H](Cc1c[nH]c2ccccc12)C(=O)N[C@@H](CC(C)C)C(=O)N[C@H](C(=O)N[C@@H](CCC(N)=O)C(=O)N[C@H](C(=O)N[C@@H](CCCCN)C(=O)N[C@H](C(=O)N[C@H](C(=O)N[C@@H](CC(=O)O)C(=O)N[C@@H](CCCCNC(=O)[C@H](CCCCN)NC(=O)[C@H](CCCCN)NC(C)=O)C(N)=O)[C@@H](C)O)[C@@H](C)CC)[C@@H](C)O)[C@@H](C)CC` [Analogue 4]: in assay [2], the Emax was determined as 102% and the pEC50 was 8.23.

Take `CC[C@H](C)[C@H](NC(=O)[C@H](Cc1ccccc1)NC(=O)[C@H](CC(=O)O)NC(=O)[C@H](CCCNC(=N)N)NC(=O)[C@H](C)NC(=O)[C@H](C)NC(=O)[C@H](CC(C)C)NC(=O)[C@H](CC(N)=O)NC(=O)[C@H](CC(=O)O)NC(=O)[C@H](CC(C)C)NC(=O)[C@@H](NC(=O)[C@@H](NC(=O)[C@H](CC(N)=O)NC(=O)[C@H](CCSC)NC(=O)[C@H](CCC(=O)O)NC(=O)[C@H](CC(=O)O)NC(=O)[C@H](CO)NC(=O)[C@H](Cc1ccccc1)NC(=O)[C@H](CO)NC(=O)CNC(=O)[C@H](CC(=O)O)NC(=O)[C@@H](C)NC(=O)[C@H](Cc1c[nH]cn1)NC(C)=O)[C@@H](C)O)[C@@H](C)CC)C(=O)N[C@@H](CC(N)=O)C(=O)N[C@@H](Cc1c[nH]c2ccccc12)C(=O)N[C@@H](CC(C)C)C(=O)N[C@H](C(=O)N[C@@H](CCC(N)=O)C(=O)N[C@H](C(=O)N[C@@H](CCCCN)C(=O)N[C@H](C(=O)N[C@H](C(=O)N[C@@H](CC(=O)O)C(=O)N[C@@H](CCCCNC(=O)[C@H](CCCCN)NC(=O)[C@H](CCCCN)NC(C)=O)C(N)=O)[C@@H](C)O)[C@@H](C)CC)[C@@H](C)O)[C@@H](C)CC` [Analogue 5]: in assay [2], the Emax is 95.1% and the pEC50 is 8.05.

As for `CC[C@H](C)[C@H](NC(=O)[C@H](Cc1ccccc1)NC(=O)[C@H](CC(=O)O)NC(=O)[C@H](CCCNC(=N)N)NC(=O)[C@H](C)NC(=O)[C@H](C)NC(=O)[C@H](CC(C)C)NC(=O)[C@H](CC(N)=O)NC(=O)[C@H](CC(=O)O)NC(=O)[C@H](CC(C)C)NC(=O)[C@@H](NC(=O)[C@@H](NC(=O)[C@H](CC(N)=O)NC(=O)[C@H](CCSC)NC(=O)[C@H](CCC(=O)O)NC(=O)[C@H](CC(=O)O)NC(=O)[C@H](CO)NC(=O)[C@H](Cc1ccccc1)NC(=O)[C@H](CO)NC(=O)CNC(=O)[C@H](CC(=O)O)NC(=O)[C@H](C)NC(=O)[C@@H](N)Cc1c[nH]cn1)[C@@H](C)O)[C@@H](C)CC)C(=O)N[C@@H](CC(N)=O)C(=O)N[C@@H](Cc1c[nH]c2ccccc12)C(=O)N[C@@H](CC(C)C)C(=O)N[C@H](C(=O)N[C@@H](CCC(N)=O)C(=O)N[C@H](C(=O)N[C@@H](CCCCN)C(=O)N[C@H](C(=O)N[C@H](C(=O)N[C@@H](CC(=O)O)C(=O)N[C@@H](CCCNC(=N)N)C(=O)O)[C@@H](C)O)[C@@H](C)CC)[C@@H](C)O)[C@@H](C)CC` [GLP-2 (1-34), reference compound], the “Hill Slope” value in assay [2] (cAMP dose response curve) stood at 0.78.

With “Ac-Ala-Met-Val-Ser-Glu-Phe-Leu-Lys-Gln-Ala-Trp-NH2 (Ac-AMVSEFLKQAW-NH2; listed as Homo sapiens) [Control peptide 2]”, the “agonism at the FPR2 receptor as described in the literature” value in assay [3] is listed as “described as agonist to the FPR2 receptor- none of them as significantly potent”.

Take “Ac-Ala-Met-Val-Ser-Glu-Phe-Leu-Lys-Gln-Ala-Trp-Phe-Ile-Glu-Asn-Glu-Glu-Gln-Glu-Tyr-Val-Gln-Thr-Val-Lys-OH (Ac-AMVSEFLKQAWFIENEEQEYVQTVK-OH; listed as Homo sapiens) [Control peptide 1]”: the “agonism at the FPR2 receptor as described in the literature” value in assay [3] is reported as “described as agonist to the FPR2 receptor- none of them as significantly potent”.

The values above are taken from US11141455B2, “Peptide analogues with branched amino acid probe(s)” (priority 2014, dated 2021).
